Literature values as cited in patent US20030091531A1, “Method and composition for insect and animal control” (priority 2001, published 2003).

Columns and labels:
[1] = classified by the EPA
[2] = unstabilised active; degrades rapidly under ultraviolet light, water, oxygen and soil microbes

| Structure (SMILES) | EPA carcinogen classification [1] | shelf life [2] |
| --- | --- | --- |
| CNC(=O)CSP(=S)(OC)OC [Dimethoate, dimethoate] | group 3 carcinogen | – |
| CCCCCCCCCC(C)=O [methyl nonyl ketone] | – | twelve |
